Results published in publication PMC3914891, “Pentacyclic Nitrofurans with In Vivo Efficacy and Activity against Nonreplicating Mycobacterium tuberculosis” (PLoS ONE, 2014).
≈ marks a conversion by molar mass, not a printed value. Like-named read-outs stand apart in the source and are kept apart here. Marks after values point to notes of the source that are not given here.

Key:
[1] = system: M. tuberculosis; experiment: MIC determination, microbroth dilution, M. tuberculosis; format: cell-based, Mycobacterium tuberculosis; conditions: for MIC: Mycobacterium tuberculosis
[2] = system: M. abscessus (ATCC 19977); experiment: MIC, non-tuberculosis mycobacteria: M. abscessus; format: cell-based; conditions: Mycobacteroides abscessus, ATCC19977, 72 h; broth dilution, visual inspection, 3 days; range of at least two independent experiments; read-out: Minimum Inhibitory Concentration, M. abscessus
[3] = system: M. avium (ATCC 25291); experiment: MIC, non-tuberculosis mycobacteria: M. avium; format: cell-based; conditions: Mycobacterium avium, ATCC25291, 168 h; broth dilution, visual inspection, 7 days; read-out: Minimum Inhibitory Concentration, M. avium
[4] = system: M. fortuitum (ATCC 6841); experiment: MIC, non-tuberculosis mycobacteria: M. fortuitum; format: cell-based; conditions: Mycolicibacterium fortuitum, ATCC6841, 72 h; broth dilution, visual inspection, 3 days; read-out: Minimum Inhibitory Concentration, M. fortuitum
[5] = system: M. ulcerans (ATCC 35840); experiment: MIC by agar proportion method: M. ulcerans; format: cell-based; conditions: Mycobacterium ulcerans, ATCC35840, 672 h; agar proportion method, 4 weeks; read-out: Minimum Inhibitory Concentration, M. ulcerans
[6] = system: M. tuberculosis H37Rv; experiment: Minimum bactericidal concentration determination; format: cell-based, Mycobacterium tuberculosis
[7] = system: hypoxic M. tuberculosis strain H37Rv; experiment: NRP bacteria under hypoxia (rapid anaerobic dormancy model); format: cell-based, Mycobacterium tuberculosis
[8] = system: M. tuberculosis strain H37Rv (mid-log and nutrient-starved); experiment: Nutrient starvation model of nonreplicating persisters; format: cell-based, Mycobacterium tuberculosis
[9] = system: H37Rv-wt; experiment: microbe, parasite or virus in culture; format: cell-based, M. tuberculosis; conditions: Mycobacterium tuberculosis
[10] = system: Staphylococcus aureus (ATCC 29213); experiment: MIC, spectrum of activity: S.a.; format: cell-based; conditions: ATCC29213, read-out: Minimum Inhibitory Concentration, S.a
[11] = system: Staphylococcus aureus (NRS70); experiment: MIC, spectrum of activity: MRSA; format: cell-based; conditions: read-out: Minimum Inhibitory Concentration, MRSA
[12] = system: Bacillus subtilis (ATCC 23857); experiment: MIC, spectrum of activity: B.s.; format: cell-based; conditions: ATCC23857, read-out: Minimum Inhibitory Concentration, B.s.
[13] = system: Streptococcus pyogenes (ATCC 700294); experiment: MIC, spectrum of activity: S.py; format: cell-based; conditions: ATCC700294, read-out: Minimum Inhibitory Concentration, S. Py.
[14] = system: Streptococcus pneumoniae (R6); experiment: MIC, spectrum of activity: S.pn; format: cell-based; conditions: read-out: Minimum Inhibitory Concentration, S. Pn.
[15] = system: Enterococcus faecalis (ATCC 33186); experiment: MIC, spectrum of activity: E.f.; format: cell-based; conditions: ATCC33186, read-out: Minimum Inhibitory Concentration, E.f.
[16] = system: Bacillus anthracis sterne 34F2; experiment: microbe, parasite or virus in culture; format: cell-based; conditions: STERNE34F2, read-out: Minimum Inhibitory Concentration, B.a.
[17] = system: Burkholderia cepacia (ATCC 25416); experiment: MIC, spectrum of activity: B.c.; format: cell-based; conditions: ATCC25416, read-out: Minimum Inhibitory Concentration, B.c.
[18] = system: Escherichia coli (ATCC 700926); experiment: MIC, spectrum of activity: E.c.; format: cell-based; conditions: ATCC700926, read-out: Minimum Inhibitory Concentration, E.c.
[19] = system: E. coli K12 ∆tolC; format: cell-based; conditions: E. coli K12 ∆tolC (efflux pump deficient)
[20] = system: Proteus mirabilis(ATCC 25933); experiment: MIC, spectrum of activity: Proteus mirabilis; format: cell-based; conditions: ATCC25933
[21] = system: Proteus vulgaris (ATCC 33420); experiment: MIC, spectrum of activity: Proteus vulgaris; format: cell-based; conditions: ATCC33420
[22] = system: Klebsiella pneumoniae (ATCC 33495); experiment: MIC, spectrum of activity: Klebsiella pneumoniae; format: cell-based; conditions: ATCC33495
[23] = system: Acinetobacter baumannii (ATCC 19606); experiment: MIC, spectrum of activity: Acinetobacter baumannii; format: cell-based; conditions: ATCC19606
[24] = system: Pseudomonas aeruginosa (PA01); experiment: microbe, parasite or virus in culture; format: cell-based
[25] = rats; IV 10 mg/kg and oral 100 mg/kg
[26] = system: M. tuberculosis Erdman; conditions: for Log10CFU Reduction (SEM), lungs / Log10CFU Reduction (SEM), spleen: vs untreated
[27] = in vitro; conditions: mouse, microsomes
[28] = cited from earlier work
[29] = mouse, plasma; cited from earlier work
[30] = rat, in vivo, cited from earlier work
[31] = system: Vero cells; experiment: In vitro cytotoxicity against Vero cells
[32] = group 1: 9a 300 mg/kg QD oral, 9 days, in 0.5% methylcellulose in DI-H2O
[33] = group 2: 9a 300 mg/kg QD oral, 9 days, in 30% Captisol in DI-H2O
[34] = group 3: 9a 300 mg/kg QD oral, 9 days, in 10% Vitamin E TPGS in DI-H2O
[35] = group 4: 9a 300 mg/kg QD oral, 9 days, in 0.5% Tween 80 in DI-H2O
[36] = group 5: 9a 300 mg/kg QD oral, 9 days, in 20% cyclodextrin in DI-H2O
[37] = group 6: 9a 300 mg/kg QD oral, 9 days, in cold PEG (50:35:15 H2O:PEG300:PG)

O=[N+]([O-])c1ccc(C2=NOC(c3ccc(N4CCC(Oc5ccc(OC(F)(F)F)cc5)CC4)cc3)C2)o1 (stereo not shown) [Compound 9a, 3-(5-Nitrofuran-2-yl)-5-(4-(4-(4-(trifluoromethoxy)phenoxy)piperidin-1-yl)phenyl)-4,5-dihydroisoxazole]
fold more potent than PA-824 (MIC) ([1]; M. tuberculosis MIC compared with PA-824): 20 fold | MIC ([1]; 168 h, read-out: M. tb. MIC): 0.024 µg/mL | MIC ([1]; M. tuberculosis, […], read-out: MIC): 0.046 µM | MIC [2]: 12.5 µg/mL (≈ 24.2 µM) | MIC [3]: 200 µg/mL (≈ 387 µM) | MIC [4]: 6.25 to 12.5 µg/mL (≈ 12.1 to 24.2 µM) | MIC [5]: 0.02 to 0.05 µg/mL (≈ 0.0387 to 0.0966 µM) | MBC [6]: 3.13–6.25 | Classification ([6]; cidal or static from MBC versus MIC): Static (static (MBC/MIC >4)) | % Growth vs. Control [7]: <0.1% | killing of hypoxic bacilli ([7]; 10 µg/mL, NRP-2 bacilli): > 99.9% | reduction in viability (killing) of actively growing culture [8]: 80% | reduction in viability of nutrient starved bacilli [8]: 80% | MIC [9]: 0.025 µg/mL (≈ 0.0483 µM) | MIC [10]: 50 µg/mL (≈ 96.6 µM) | MIC [11]: 50 µg/mL (≈ 96.6 µM) | MIC [12]: 100 µg/mL (≈ 193 µM) | MIC [13]: 200 µg/mL (≈ 387 µM) | MIC [14]: 100 µg/mL (≈ 193 µM) | MIC [15]: > 200 µg/mL | MIC [16]: 12.5 µg/mL (≈ 24.2 µM) | MIC [17]: 50 µg/mL (≈ 96.6 µM) | MIC [18]: > 200 µg/mL | Minimum Inhibitory Concentration, E.c. ΔtolC [19]: 50 µg/mL | MIC [20]: > 200 µg/mL | MIC [21]: > 200 µg/mL | MIC [22]: > 200 µg/mL | MIC [23]: > 200 µg/mL | MIC [24]: > 200 µg/mL | Toxicity by intravenous and oral dosing [25]: non-toxic | reduction of bacterial load in lungs ([26]; GKO mice, 300 mg/kg oral daily, 9 days, across formulations): 91–97% | reduction in bacillary load, lungs and spleens ([26]; GKO mice, after 9 days of treatment): > 90% | tolerability ([26]; GKO mice, daily oral administration at 300 mg/kg, 9 days, each of six formulations): well tolerated | Log10CFU Reduction (SEM), lungs [26, 32]: 1.06 (0.18) Log10CFU | Log10CFU Reduction (SEM), lungs [26, 33]: 1.30 (0.20) Log10CFU | Log10CFU Reduction (SEM), lungs [26, 34]: 1.47 (0.18) Log10CFU | Log10CFU Reduction (SEM), lungs [26, 35]: 1.38 (0.16) Log10CFU | Log10CFU Reduction (SEM), lungs [26, 36]: 1.08 (0.15) Log10CFU | Log10CFU Reduction (SEM), lungs [26, 37]: 1.10 (0.21) Log10CFU | Log10CFU (SEM), lungs [26, 32]: 7.01 (0.11) Log10CFU | Log10CFU (SEM), lungs [26, 33]: 6.77 (0.14) Log10CFU | Log10CFU (SEM), lungs [26, 34]: 6.61 (0.11) Log10CFU | Log10CFU (SEM), lungs [26, 35]: 6.69 (0.07) Log10CFU | Log10CFU (SEM), lungs [26, 36]: 6.99 (0.06) Log10CFU | Log10CFU (SEM), lungs [26, 37]: 6.99 (0.15) Log10CFU | Log10CFU Reduction (SEM), spleen [26, 32]: 0.95 (0.18) Log10CFU | Log10CFU Reduction (SEM), spleen [26, 33]: 1.48 (0.17) Log10CFU | Log10CFU Reduction (SEM), spleen [26, 34]: 1.77 (0.27) Log10CFU | Log10CFU Reduction (SEM), spleen [26, 35]: 1.17 (0.18) Log10CFU | Log10CFU Reduction (SEM), spleen [26, 36]: 1.44 (0.16) Log10CFU | Log10CFU Reduction (SEM), spleen [26, 37]: 1.03 (0.20) Log10CFU | Log10CFU (SEM), spleen [26, 32]: 6.25 (0.11) Log10CFU | Log10CFU (SEM), spleen [26, 33]: 5.72 (0.09) Log10CFU | Log10CFU (SEM), spleen [26, 34]: 5.43 (0.23) Log10CFU | Log10CFU (SEM), spleen [26, 35]: 6.03 (0.12) Log10CFU | Log10CFU (SEM), spleen [26, 36]: 5.76 (0.08) Log10CFU | Log10CFU (SEM), spleen [26, 37]: 6.17 (0.14) Log10CFU | half-life [27]: 304 min | Solubility (pH 7.4) [28]: 2.7 ^h µg/mL | Plasma Protein binding [29]: 99.9 ^h % | Vd ([30]; iv, 10 mg/kg): 6.72 (1.10) L/kg | fe (fraction excreted unchanged in urine) ([30]; iv, 10 mg/kg): 0.04 (0.01) % | AUC0-∞ ([30]; po, 100 mg/kg): 10.2 (9.1) mg h/L | Cmin,24 h ([30]; po, 100 mg/kg): 0.17 (0.16) mg/L | Cmax [30]: 0.85 µg/mL | Cmin,24 h [30]: 0.17 µg/mL | Selective Index (Cytox/MIC) [31]: 808
